According to ChEMBL document CHEMBL1201862, “PubChem BioAssay data set” (2004):
Active and inactive are the calls of the source.

Tests used:
[1] = target: Genome polyprotein (dengue virus type 2, UniProt P29990); assay: flavivirus cap methylation enzyme inhibition – biochemical, confirmation dose response, primary screen (AID 588689); format: functional
[2] = target: Voltage-dependent T-type calcium channel subunit alpha-1H (Homo sapiens, UniProt O95180); format: functional;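 note: channel activity triggered by adding a high calcium stimulation buffer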
Voltage-dependent T-type calcium channel subunit alpha-1H, sequence (O95180 whole entry): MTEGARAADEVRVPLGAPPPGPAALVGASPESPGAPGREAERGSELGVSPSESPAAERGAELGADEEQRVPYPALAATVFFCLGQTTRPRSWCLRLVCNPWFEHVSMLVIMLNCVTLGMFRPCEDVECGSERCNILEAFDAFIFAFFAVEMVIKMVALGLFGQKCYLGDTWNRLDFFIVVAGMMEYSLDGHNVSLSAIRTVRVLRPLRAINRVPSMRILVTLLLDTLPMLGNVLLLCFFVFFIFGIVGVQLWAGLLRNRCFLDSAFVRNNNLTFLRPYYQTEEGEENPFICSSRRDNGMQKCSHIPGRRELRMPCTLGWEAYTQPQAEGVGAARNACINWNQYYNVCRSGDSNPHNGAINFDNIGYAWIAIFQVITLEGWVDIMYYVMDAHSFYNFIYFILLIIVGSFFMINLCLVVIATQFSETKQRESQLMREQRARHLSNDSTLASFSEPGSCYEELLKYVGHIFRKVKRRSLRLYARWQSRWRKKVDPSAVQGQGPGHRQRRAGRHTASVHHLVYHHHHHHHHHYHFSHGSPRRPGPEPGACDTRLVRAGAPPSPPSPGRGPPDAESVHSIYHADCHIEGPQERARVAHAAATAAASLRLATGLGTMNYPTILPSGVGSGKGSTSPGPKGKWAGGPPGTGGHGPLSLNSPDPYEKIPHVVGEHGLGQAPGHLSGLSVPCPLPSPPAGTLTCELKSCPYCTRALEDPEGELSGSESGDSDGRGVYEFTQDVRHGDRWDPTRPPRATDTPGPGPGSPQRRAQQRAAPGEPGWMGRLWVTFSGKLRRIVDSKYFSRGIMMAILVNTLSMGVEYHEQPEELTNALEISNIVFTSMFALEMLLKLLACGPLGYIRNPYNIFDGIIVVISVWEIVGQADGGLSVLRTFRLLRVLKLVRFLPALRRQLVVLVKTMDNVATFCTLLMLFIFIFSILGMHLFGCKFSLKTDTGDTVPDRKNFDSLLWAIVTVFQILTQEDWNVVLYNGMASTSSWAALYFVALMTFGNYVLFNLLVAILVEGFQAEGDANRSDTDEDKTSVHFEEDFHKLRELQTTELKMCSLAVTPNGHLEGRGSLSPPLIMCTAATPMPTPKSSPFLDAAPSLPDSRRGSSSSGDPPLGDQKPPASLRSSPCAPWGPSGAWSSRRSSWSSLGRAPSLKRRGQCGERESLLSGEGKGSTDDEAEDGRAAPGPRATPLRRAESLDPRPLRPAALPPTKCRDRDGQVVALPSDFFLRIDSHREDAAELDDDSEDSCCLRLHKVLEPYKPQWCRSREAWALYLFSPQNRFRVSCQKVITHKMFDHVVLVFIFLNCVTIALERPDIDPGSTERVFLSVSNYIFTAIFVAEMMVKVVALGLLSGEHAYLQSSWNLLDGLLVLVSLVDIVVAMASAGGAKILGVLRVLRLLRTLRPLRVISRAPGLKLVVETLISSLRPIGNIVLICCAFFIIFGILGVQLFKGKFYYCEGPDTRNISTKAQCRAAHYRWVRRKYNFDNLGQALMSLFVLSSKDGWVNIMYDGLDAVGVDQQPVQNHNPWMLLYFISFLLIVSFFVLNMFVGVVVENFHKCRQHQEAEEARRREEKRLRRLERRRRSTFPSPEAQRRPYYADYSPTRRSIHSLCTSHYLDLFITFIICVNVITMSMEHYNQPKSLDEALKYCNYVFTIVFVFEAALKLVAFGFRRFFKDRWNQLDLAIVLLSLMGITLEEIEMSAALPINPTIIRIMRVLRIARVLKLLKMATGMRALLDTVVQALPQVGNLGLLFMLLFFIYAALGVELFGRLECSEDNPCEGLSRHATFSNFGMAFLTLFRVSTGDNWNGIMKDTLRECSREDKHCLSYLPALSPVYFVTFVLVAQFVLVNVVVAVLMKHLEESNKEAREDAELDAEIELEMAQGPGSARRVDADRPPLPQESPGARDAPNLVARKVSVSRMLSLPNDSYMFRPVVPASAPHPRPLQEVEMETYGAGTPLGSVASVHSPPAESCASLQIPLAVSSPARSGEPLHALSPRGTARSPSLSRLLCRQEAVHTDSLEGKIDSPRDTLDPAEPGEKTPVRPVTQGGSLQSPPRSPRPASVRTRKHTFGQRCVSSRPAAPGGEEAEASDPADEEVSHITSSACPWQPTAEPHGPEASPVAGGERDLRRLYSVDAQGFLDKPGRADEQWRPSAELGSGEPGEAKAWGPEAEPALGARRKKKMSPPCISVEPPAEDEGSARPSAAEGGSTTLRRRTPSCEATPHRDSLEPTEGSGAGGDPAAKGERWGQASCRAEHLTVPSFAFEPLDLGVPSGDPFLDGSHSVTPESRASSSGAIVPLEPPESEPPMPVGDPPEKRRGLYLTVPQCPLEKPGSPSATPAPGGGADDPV

[3] = Luminescence Cell-Based Dose Retest to Confirm Inhibitors of Cancer Stem Cells. [Related pubchem assays (depositor defined):AID2717, AID2721]; format: functional; conditions: Homo sapiens
[4] = target: T1, Protein skinhead-1 (Caenorhabditis elegans, UniProt P34707); format: functional
T1 sequence (P34707 whole entry): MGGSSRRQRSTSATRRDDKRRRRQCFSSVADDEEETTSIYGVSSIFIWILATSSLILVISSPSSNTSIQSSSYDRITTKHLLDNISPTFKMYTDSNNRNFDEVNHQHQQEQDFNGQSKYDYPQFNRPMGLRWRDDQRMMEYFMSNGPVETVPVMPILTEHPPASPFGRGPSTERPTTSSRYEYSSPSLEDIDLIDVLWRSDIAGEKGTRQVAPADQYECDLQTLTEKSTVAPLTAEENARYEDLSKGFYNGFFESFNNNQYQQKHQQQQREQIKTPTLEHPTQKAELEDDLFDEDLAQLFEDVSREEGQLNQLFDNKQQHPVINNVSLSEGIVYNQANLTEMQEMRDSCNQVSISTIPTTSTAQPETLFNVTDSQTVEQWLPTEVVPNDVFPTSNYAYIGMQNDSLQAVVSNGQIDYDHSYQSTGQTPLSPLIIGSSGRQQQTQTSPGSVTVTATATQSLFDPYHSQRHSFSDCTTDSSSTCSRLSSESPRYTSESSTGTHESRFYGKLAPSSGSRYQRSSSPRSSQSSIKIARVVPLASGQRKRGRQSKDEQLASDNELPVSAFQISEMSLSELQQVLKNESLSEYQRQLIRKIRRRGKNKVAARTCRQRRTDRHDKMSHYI

[5] = target: T2, Cytochrome P450 1A2 (Homo sapiens, UniProt P05177);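 note: PubChem cytochrome P450 panel assay, CYP1A2 panel member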
T2 sequence (P05177 whole entry): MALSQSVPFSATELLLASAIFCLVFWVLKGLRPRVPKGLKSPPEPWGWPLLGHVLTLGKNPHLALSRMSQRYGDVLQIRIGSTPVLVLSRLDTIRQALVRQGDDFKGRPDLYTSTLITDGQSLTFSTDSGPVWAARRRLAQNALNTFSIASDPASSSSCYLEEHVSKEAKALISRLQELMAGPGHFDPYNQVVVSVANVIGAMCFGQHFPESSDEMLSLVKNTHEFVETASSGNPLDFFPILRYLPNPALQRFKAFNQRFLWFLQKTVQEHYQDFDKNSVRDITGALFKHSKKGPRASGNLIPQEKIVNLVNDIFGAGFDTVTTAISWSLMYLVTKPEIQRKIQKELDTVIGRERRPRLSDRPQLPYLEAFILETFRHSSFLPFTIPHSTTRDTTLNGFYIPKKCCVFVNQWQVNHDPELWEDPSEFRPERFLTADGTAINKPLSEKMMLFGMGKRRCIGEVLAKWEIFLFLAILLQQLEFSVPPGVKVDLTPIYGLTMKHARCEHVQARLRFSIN

[6] = target: Peroxisome proliferator-activated receptor gamma/Nuclear receptor coactivator 3 (Homo sapiens, UniProt P37231); format: functional;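 note: agonist potency for raising coactivator recruitment to the receptor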
[7] = target: Peroxisome proliferator-activated receptor gamma/Nuclear receptor coactivator 2 (Homo sapiens, UniProt P37231); format: functional;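 note: agonist potency for raising coactivator recruitment to the receptor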
[8] = target: Peroxisome proliferator-activated receptor gamma/Nuclear receptor coactivator 1 (Homo sapiens, UniProt P37231); format: functional;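 note: agonist potency as compounds enhance coactivator SRC-1 recruitment to PPARgamma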
[9] = target: T3, Corticotropin-releasing factor receptor 2/Corticotropin-releasing factor-binding protein (Homo sapiens, UniProt P24387+Q13324); assay: Dose Response confirmation of uHTS hits for small molecule antagonists of the CRF-binding protein and CRF-R2 receptor complex.; format: functional; conditions: read-out: IC50_Mean
T3 sequence (Q13324 whole entry): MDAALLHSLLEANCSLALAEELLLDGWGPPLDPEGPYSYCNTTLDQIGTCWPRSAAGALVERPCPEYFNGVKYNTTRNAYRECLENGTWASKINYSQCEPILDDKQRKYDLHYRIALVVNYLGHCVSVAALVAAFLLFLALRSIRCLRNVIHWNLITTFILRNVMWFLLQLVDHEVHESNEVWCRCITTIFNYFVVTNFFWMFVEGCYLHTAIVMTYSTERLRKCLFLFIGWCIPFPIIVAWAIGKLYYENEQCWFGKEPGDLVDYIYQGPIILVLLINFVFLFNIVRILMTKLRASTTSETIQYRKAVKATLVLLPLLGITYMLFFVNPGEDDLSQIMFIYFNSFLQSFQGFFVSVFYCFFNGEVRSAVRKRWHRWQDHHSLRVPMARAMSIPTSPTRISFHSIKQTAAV
T3 sequence (P24387 whole entry): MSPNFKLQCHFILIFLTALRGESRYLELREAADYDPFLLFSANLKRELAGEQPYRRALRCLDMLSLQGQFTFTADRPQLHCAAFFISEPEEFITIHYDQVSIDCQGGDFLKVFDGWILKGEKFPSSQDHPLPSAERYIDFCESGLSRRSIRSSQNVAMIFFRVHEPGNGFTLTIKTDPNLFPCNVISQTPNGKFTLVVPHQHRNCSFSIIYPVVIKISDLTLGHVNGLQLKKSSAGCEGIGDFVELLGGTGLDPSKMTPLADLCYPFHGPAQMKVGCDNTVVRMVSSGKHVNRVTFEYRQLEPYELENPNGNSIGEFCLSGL

[10] = target: T3, Corticotropin-releasing factor receptor 2/Corticotropin-releasing factor-binding protein; assay: activators of CRF receptor 2 with binding protein – uHTS hits, confirmation (AID 602473); format: functional; conditions: read-out: EC50_Mean
[11] = test system: HEK293; assay: NOD2 signaling inhibitors in MDP-stimulated cells, cell-based, uHTS, luminescence (AID 2001); format: functional; conditions: Homo sapiens
[12] = test system: HEK293; assay: inhibition of NOD1-driven NF-kB reporter – cell-based, luminescence, uHTS, primary screen (AID 1578); format: functional; conditions: Homo sapiens
[13] = test system: HEK293; assay: cells; format: functional, cell-based; conditions: Homo sapiens
[14] = test system: H9c2; assay: cells; format: functional, cell-based; conditions: Rattus norvegicus, H9c2, Myocardium;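 note: confirmatory concentration-response retest of ultra-high-throughput screening hits for modulation of myocardial damage; cell death induced by hydrogen peroxide oxidative stress; compound pretreatment for 60 min then peroxide exposure for 2 h; potency is for protecting the cells against peroxide damage rather than for killing them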
[15] = viability of HCT116 lacking mutant beta-catenin – cell-based, human colon tumor, dose response (AID 1045); format: functional;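 note: HCT116 colon tumor cells with beta catenin knocked out; cells exposed to compound for 60 hours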
[16] = viability of PTEN-deleted HCT116 cells – cell-based, HCT116 PTEN knockout, dose response (AID 1047); format: functional;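 note: HCT116 colon tumor cells with PTEN knocked out; cells exposed to compound for 60 hours before readout; potency for loss of cell viability measured by luminescence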
[17] = target: Cytochrome P450 3A4 (Homo sapiens, UniProt P08684);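 note: CYP3A4 tested as one member of a cytochrome P450 panel screen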
Cytochrome P450 3A4, sequence (P08684 whole entry): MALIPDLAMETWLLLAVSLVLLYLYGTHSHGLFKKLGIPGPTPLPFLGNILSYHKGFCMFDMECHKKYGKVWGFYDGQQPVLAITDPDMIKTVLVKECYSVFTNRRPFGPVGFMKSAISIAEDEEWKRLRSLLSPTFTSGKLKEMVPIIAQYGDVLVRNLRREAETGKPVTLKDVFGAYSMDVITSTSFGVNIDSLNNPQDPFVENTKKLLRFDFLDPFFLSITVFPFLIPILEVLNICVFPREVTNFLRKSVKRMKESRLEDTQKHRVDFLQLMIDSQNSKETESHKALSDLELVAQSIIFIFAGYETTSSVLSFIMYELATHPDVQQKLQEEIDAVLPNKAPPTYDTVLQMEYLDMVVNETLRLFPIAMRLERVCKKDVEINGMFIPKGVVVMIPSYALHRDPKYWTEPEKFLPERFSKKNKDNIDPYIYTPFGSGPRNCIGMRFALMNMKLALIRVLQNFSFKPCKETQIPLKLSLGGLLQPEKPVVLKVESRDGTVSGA

[18] = Trypanosoma cruzi growth suppression in host cells – NIH3T3 host cells, beta-gal luminescence, confirmation (AID 2044); format: functional, cell-based;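 note: intracellular parasites grown in NIH/3T3 mouse fibroblasts as host cells; luminescent beta-galactosidase reporter signal from transgenic T. cruzi replicating inside host cells; inhibitors lower the luminescence signal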
[19] = target: T4, Short transient receptor potential channel 4 (Mus musculus, UniProt Q9QUQ5); assay: calcium entry via TRPC4 opening agents – cell-based, HEK293 TRPC4/mu-opioid, Fluo-4 calcium, dose response (AID 434937); format: functional
T4 sequence (Q9QUQ5 whole entry): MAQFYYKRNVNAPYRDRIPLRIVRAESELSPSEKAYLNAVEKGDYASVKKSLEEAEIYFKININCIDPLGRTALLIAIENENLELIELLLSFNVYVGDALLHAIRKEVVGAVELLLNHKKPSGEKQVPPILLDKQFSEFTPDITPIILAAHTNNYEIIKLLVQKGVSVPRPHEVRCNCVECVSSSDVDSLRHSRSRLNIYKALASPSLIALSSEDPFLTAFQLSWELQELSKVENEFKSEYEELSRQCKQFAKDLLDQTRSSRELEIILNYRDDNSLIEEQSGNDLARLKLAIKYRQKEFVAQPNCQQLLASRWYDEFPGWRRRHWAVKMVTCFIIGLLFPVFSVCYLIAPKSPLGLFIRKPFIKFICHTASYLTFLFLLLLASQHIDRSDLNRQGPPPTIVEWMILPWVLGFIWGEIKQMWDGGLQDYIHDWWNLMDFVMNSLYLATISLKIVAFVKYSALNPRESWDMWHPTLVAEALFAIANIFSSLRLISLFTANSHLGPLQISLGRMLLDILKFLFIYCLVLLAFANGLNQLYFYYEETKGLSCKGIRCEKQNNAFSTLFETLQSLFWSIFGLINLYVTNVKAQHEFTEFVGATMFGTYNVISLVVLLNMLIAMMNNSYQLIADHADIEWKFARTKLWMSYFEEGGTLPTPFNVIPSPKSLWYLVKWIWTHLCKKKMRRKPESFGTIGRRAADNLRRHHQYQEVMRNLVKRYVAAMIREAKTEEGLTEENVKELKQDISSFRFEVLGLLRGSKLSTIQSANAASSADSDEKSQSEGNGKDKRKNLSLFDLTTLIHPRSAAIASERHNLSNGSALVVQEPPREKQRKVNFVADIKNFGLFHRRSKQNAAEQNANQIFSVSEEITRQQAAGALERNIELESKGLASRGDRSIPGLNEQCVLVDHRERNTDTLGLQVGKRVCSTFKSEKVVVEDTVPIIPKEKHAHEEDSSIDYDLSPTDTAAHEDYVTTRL

[20] = cells; format: functional
[21] = alpha-synuclein stem-loop luciferase translation blockers – H4 neuroglioma cells, luminescence, confirmation (AID 1988); format: functional, cell-based
[22] = THP-1 cell cytotoxicity, dose response, cytotoxicity control for non-replicating M. tuberculosis project (AID 489025); format: functional
[23] = luciferase reporter signal suppression in cells – H4 neuroglioma cells, luminescence, dose response (AID 1990); format: functional, cell-based
[24] = NIH3T3 cell viability loss – ATP luminescence, mouse fibroblasts, counter-screen, dose response (AID 2010); format: functional, cell-based;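 note: cells exposed to compound for about 90 hours before reading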
[25] = Luminescence Cell-Based Dose Response HTS to Identify Inhibitors of 5'UTR Stem-Loop Driven Prion Protein mRNA Translation in H4 Neuroglioblastoma Cells. [Related pubchem assays: 1827 (Project Summary), 1813 (Primary HTS)]; format: functional

Genome polyprotein, sequence (P29990 2492-3391 limits assumed): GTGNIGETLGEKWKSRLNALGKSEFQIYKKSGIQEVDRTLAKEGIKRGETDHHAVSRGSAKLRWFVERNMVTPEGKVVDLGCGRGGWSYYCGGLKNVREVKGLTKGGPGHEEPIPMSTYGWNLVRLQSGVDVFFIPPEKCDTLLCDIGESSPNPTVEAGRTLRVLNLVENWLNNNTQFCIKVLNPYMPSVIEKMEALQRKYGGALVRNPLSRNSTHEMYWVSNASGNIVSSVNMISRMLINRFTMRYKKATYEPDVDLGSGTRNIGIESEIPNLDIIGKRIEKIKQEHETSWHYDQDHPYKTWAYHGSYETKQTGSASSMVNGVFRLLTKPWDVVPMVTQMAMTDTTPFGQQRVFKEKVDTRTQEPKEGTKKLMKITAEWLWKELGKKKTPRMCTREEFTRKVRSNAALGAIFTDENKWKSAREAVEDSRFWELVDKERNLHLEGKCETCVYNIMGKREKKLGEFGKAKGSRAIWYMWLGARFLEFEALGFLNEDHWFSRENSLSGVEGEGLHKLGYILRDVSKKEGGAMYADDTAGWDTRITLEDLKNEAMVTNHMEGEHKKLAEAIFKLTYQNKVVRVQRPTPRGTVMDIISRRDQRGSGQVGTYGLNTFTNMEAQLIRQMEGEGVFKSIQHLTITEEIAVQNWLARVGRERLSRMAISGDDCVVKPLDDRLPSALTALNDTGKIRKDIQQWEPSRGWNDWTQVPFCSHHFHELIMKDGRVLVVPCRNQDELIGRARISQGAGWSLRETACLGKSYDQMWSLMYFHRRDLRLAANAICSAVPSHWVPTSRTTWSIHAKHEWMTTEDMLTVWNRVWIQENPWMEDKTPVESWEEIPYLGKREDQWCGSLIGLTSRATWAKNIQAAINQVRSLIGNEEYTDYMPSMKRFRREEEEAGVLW

## COc1ccccc1N(O)C1CC(=O)N(c2ccc(Br)cc2)C1=O (stereo unspecified)
[1]
  IC50: 34.7 µM (active)

## O=C(COc1ccc(Cl)cc1)NCCSCc1cccc(Cl)c1
[2]
  EC50: 3.76 µM (active)

## Cc1snc(S(=O)(=O)/C(C#N)=N/Nc2ccc(C(F)(F)F)cc2)c1C#N
[3]
  AC50: 7.49 µM (active)
[2]
  EC50: 6.48 µM (active)

## Cn1c(=O)n(C)c2cc(/C=C(/C#N)C(=O)NCc3ccco3)ccc21
[4]
  IC50: > 100 µM (inactive)

## COc1ccccc1C(=O)Nc1ccc(Br)c2cccnc12
[4]
  IC50: > 100 µM (inactive)

## COc1ccccc1NC(=O)c1nnn(Cc2ccccc2)c1NC(=O)C(F)(F)F
[2]
  EC50: 3.86 µM (active)

## O=C(Nc1ccn(Cc2ccccc2F)n1)c1ccc(COc2cc(Cl)ccc2Cl)o1
[5]
  AC50: 3.55 µM (inconclusive)
[2]
  EC50: 7.11 µM (active)

## COC(=O)c1cnn(-c2nc3c(C)cccc3s2)c1C
[6]
  EC50: 67 µM (not active)
[7]
  EC50: 30 µM (not active)
[8]
  EC50: 54.5 µM (not active)

## Cc1ccc(NS(=O)(=O)c2cccs2)cc1S(=O)(=O)N1CCCCCC1
[6]
  EC50: > 79.4 µM (not active)
[9]
  IC50: > 47.1 µM (inactive)
[7]
  EC50: > 79.4 µM (not active)
[10]
  EC50: > 53 µM (inactive)
[8]
  EC50: > 79.4 µM (not active)

## O=C(CSc1nc2ccccc2[nH]1)Nc1ccc2c(c1)OCCO2
[2]
  EC50: 13.3 µM (active)

## Cc1ccc(S(=O)(=O)NC(=O)COc2ccccc2)cc1
[6]
  EC50: > 79.4 µM (not active)
[7]
  EC50: > 79.4 µM (not active)
[8]
  EC50: > 79.4 µM (not active)

## C/C(CC(c1ccccc1)c1c(O)oc2ccccc2c1=O)=N\Nc1ccc([N+](=O)[O-])cc1[N+](=O)[O-] (stereo unspecified)
[1]
  IC50: 94.4 µM (active)

## COc1cc(/C=C2/CCc3ccccc3C2=O)cc(OC)c1OC
[11]
  IC50: 9.24 µM (active)
[12]
  EC50: > 20 µM (inactive)
[13]
  IC50: > 20 µM (inactive)

## CCN(CC)CCn1c(NC(=O)c2ccc(Cl)cc2)nc2ccccc21
[14]
  IC50: > 79 µM (inactive)
[6]
  EC50: > 79.4 µM (not active)
[7]
  EC50: > 79.4 µM (not active)
[8]
  EC50: > 79.4 µM (not active)

## CCN1CCCC1CNC(=O)c1cc2c(-c3ccc(Cl)cc3)nn(C)c2s1 (stereo unspecified)
[6]
  EC50: > 79.4 µM (not active)
[15]
  EC50: 5.02 µM (active)
[7]
  EC50: > 79.4 µM (not active)
[8]
  EC50: > 79.4 µM (not active)
[16]
  EC50: 5.98 µM (active)

## Cc1ccc(-c2ccc(/C=N/N3C(=O)C4C5C=CC(C6CC56)C4C3=O)o2)c([N+](=O)[O-])c1 (stereo unspecified)
[2]
  EC50: 7.22 µM (active)

## CN1C(=O)C(=Cc2ccccc2Oc2ccc(Cl)c(F)c2)C(=O)N(C)C1=O
[1]
  IC50: 51.9 µM (active)
[17]
  AC50: 14.1 µM (inconclusive)

## CSc1ccc(Cl)c(C(=O)NCc2ccco2)c1
[4]
  IC50: > 100 µM (inactive)

## Cc1cc(OCCCCn2ccnc2)cc(C)c1Cl
[18]
  EC50: 145 nM (active)
[19]
  EC50: 5.31 µM (active)
[20]
  IC50: 15.8 µM (active)
[21]
  EC50: 16 µM (active)
[22]
  CC50: 33.2 µM (active)
[23]
  EC50: > 120 µM (not active)
[24]
  EC50: > 60 µM (not active)
[25]
  EC50: > 120 µM (not active)
